Source: ChEMBL document CHEMBL4765322, “Novel curcumin derivatives as P-glycoprotein inhibitors: Molecular modeling, synthesis and sensitization of multidrug resistant cells to doxorubicin” (Eur J Med Chem, 2020)

Experiments:
[1] = Cytotoxicity against human K562/4 cells assessed as reduction in cell viability measured after 72 hrs by MTT assay; assay type: cell-based; conditions: K562/4, 72 h
[2] = system: K562/4; conditions: Homo sapiens
Description: Inhibition of P-gp-mediated doxorubicin efflux in human K562/4 cells assessed as minimal concentration required for the effect by flow cytometric analysis

[3] = Inhibition of P-gp mediated multidrug resistance in human K562/4 cells assessed as sensitization of cells to doxorubicin by measuring reduction in cell viability preincubated with compound for 30 mins prior to 1 uM doxorubicin addition and measured after 72 hrs by MTT assay; assay type: cell-based

Structure (SMILES)	IC50 [1]	MED [2]	IC50 [3]
CCOC(=O)c1ccc(-n2nc(/C=C/c3ccc(O)c(OC)c3)cc2/C=C/c2ccc(O)c(OC)c2)cc1	10.2 µM		
COc1cc(/C=C/c2cc(/C=C/c3ccc(O)c(OC)c3)n(-c3ccc(C(=O)OCC(C)C)cc3)n2)ccc1O	6.4 µM		
COc1cc(/C=C/c2cc(/C=C/c3ccc(O)c(OC)c3)n(-c3ccc(C(=O)OCC(F)(F)F)cc3)n2)ccc1O	> 25 µM		
CCOC(=O)c1ccc(-n2nc(/C=C/c3ccc(O)cc3)cc2/C=C/c2ccc(O)cc2)cc1F	10.3 µM		
COC(=O)c1ccc(-n2nc(/C=C/c3ccc(O)c(OC)c3)cc2/C=C/c2ccc(O)c(OC)c2)cc1	9.6 µM		
COc1cc2c(cc1OC)CN(CCc1ccc(NC(=O)c3cc(OC)c(OC)cc3NC(=O)c3cnc4ccccc4c3)cc1)CC2		1 µM	
CCOC(=O)c1ccc(-n2nc(/C=C/c3ccc(OC)c(OC)c3)cc2/C=C/c2ccc(OC)c(OC)c2)cc1	> 50 µM		0.8 µM
COc1cc(/C=C/c2cc(/C=C/c3ccc(O)c(OC)c3)n(-c3ccc(C(=O)OC(C)C)cc3)n2)ccc1O	12.5 µM		
COc1cc(/C=C/c2cc(/C=C/c3ccc(O)c(OC)c3)n(-c3ccc(C(=O)OC(C)(C)C)cc3)n2)ccc1O	> 25 µM		
CCOC(=O)c1ccc(-n2nc(/C=C/c3ccc(OC)c(OC)c3)cc2/C=C/c2ccc(OC)c(OC)c2)cc1F	> 50 µM		0.2 µM
COc1cc(/C=C/c2cc(/C=C/c3ccc(O)c(OC)c3)n(-c3ccc(F)cc3)n2)ccc1O	10.8 µM		
CCOC(=O)c1ccc(-n2nc(/C=C/c3ccc(O)c(OC)c3)cc2/C=C/c2ccc(O)c(OC)c2)cc1F	5.4 µM		
COc1cc(/C=C/c2cc(/C=C/c3ccc(O)c(OC)c3)n(-c3ccc(C(=O)OC/C=C(\C)CC/C=C(\C)CCC=C(C)C)cc3)n2)ccc1O	> 25 µM		
CCOC(=O)c1ccc(-n2nc(/C=C/c3ccc(OC)c(OC)c3)cc2/C=C/c2ccc(OC)c(OC)c2)cc1[N+](=O)[O-]	> 50 µM		
CCNC(=S)c1ccc(-n2nc(/C=C/c3ccc(OC)c(OC)c3)cc2/C=C/c2ccc(OC)c(OC)c2)cc1	> 50 µM		0.5 µM
COc1ccc(/C=C/c2cc(/C=C/c3ccc(OC)c(OC)c3)n(-c3ccc(C(=O)N4CCCC4)cc3)n2)cc1OC	> 50 µM		0.5 µM
CCNC(=O)c1ccc(-n2nc(/C=C/c3ccc4c(c3)OCO4)cc2/C=C/c2ccc3c(c2)OCO3)cc1	> 50 µM		
CCNC(=O)c1ccc(-n2nc(/C=C/c3ccc(O)c(OC)c3)cc2/C=C/c2ccc(O)c(OC)c2)cc1	4.3 µM		
CCNS(=O)(=O)c1ccc(-n2nc(/C=C/c3ccc(OC)c(OC)c3)cc2/C=C/c2ccc(OC)c(OC)c2)cc1	> 50 µM		0.5 µM
COc1ccc(/C=C/c2cc(/C=C/c3ccc(OC)c(OC)c3)n(-c3ccc(C(=O)NCC(C)C)cc3)n2)cc1OC	> 50 µM		0.4 µM
CCOC(=O)c1ccc(-n2nc(/C=C/c3ccc(O)cc3)cc2/C=C/c2ccc(O)cc2)cc1	11.1 µM		
COc1cc(/C=C/c2cc(/C=C/c3ccc(O)c(OC)c3)n(-c3ccc(C(=O)OC/C=C(\C)CCC=C(C)C)cc3)n2)ccc1O	> 25 µM		
CCNC(=O)c1ccc(-n2nc(/C=C/c3ccc(OC)c(OC)c3)cc2/C=C/c2ccc(OC)c(OC)c2)cc1	> 50 µM		0.2 µM
